Source: patent US20050089488A1, “Deodorant composition with monocyclic, unsaturated sequiterpene alcohols and glyceryl monoalkyl ethers as synergistic active deodorant agents” (priority 2003, published 2005)

How the values were obtained:
[1] = 0.3% by weight in ethanol base deodorant, versus triclosan; cited from earlier work
[2] = system: odor-causing gram positive bacteria; conditions: cited from earlier work
[3] = cited from earlier work
[4] = system: Staphylococcus aureus (ATCC 6538); experiment: Surviving microorganisms after direct inoculation of gel formula; format: cell-based
Procedure: The antimicrobially synergistically effect of alpha bisabolol (Natural) for glyceryl monoalkyl ether was studied and the results are summarized in Tables 15 and 16, below. […] Subsequently the steareth-100, sodium stearate, and […] alcohol were added and the mixture cooled. […] The final compositions were then poured into containers and cooled to room temperature. […] Therefore following formula is gel type. Inoculate test microorganisms to provide a suspension containing from 105 to 106 microorganisms/ml and after 1 hr, 5 hr and 24 hr, check the surviving microorganisms by incubating in the soybean-casein digest agar for 24 hours at 32.5° C. the results are summarized below.

Structure (SMILES)	deodorant effectiveness [1]	anti-microbial activity against odor-causing gram positive bacteria [2]	stability ([3]; against hydrolysis and elevated temperatures)	solubility in fats and organic solvents ([3]; fats, alcohols, glycols and glycol ethers)	solubility in water ([3]; water) [%]	anti-microbial activity alone ([4]; 0.2% by weight, with no ethylhexylglycerin)	effect on the anti-microbial activity of ethylhexylglycerin ([4]; combination with ethylhexylglycerin)
CCCCC(CC)COCC(O)CO (stereo not shown) [Ethylhexylglycerin]	just as effective as 0.1% by weight triclosan	very low	rather stable	completely soluble	0.2		
CC(C)=CCC[C@](C)(O)[C@@H]1CC=C(C)CC1 [alpha bisabolol (Natural), alpha-bisabolol]						no anti-microbial activity	surprising and unexpected synergistic effect
